Literature values as cited in patent US20250170094A1 (priority 2023, published 2025).
Read-outs that look alike come from different tables or passages of the source.

Tests used:
[1] = not given; remark: listed apart in the source

With `CCC(CC)[C@H](NC(C)=O)[C@@H]1[C@H](O)[C@@H](C(=O)O)C[C@H]1NC(=N)N` [peramivir, (1S,2S,3R,4R)-3-[(1S)-1-(acetylamino)-2-ethylbutyl]-4-guanidino-2-hydroxycyclopentanecarboxylic acid] as the compound, how does the solubility (pH 1.0) read?
The solubility was “about 59 mg/ml”.

What about the solubility (pH≥5) of the same compound?
The solubility was no more than 20 mg/mL.

And the “oil-water partition coefficient LogP[n-octanol/water]” value [1]?
Its value is −1.16.
